Test results taken from publication PMC4503722, “Novel Phenotypic Outcomes Identified for a Public Collection of Approved Drugs from a Publicly Accessible Panel of Assays” (PLoS ONE, 2015).
Like-named read-outs stand apart in the source and are kept apart here.

Columns and labels:
HCT116 = assay: cells; type: cell-based; details: for IC50: read-out: Basal_Viability ATP HCT116 summarized IC50
Colo320 = assay: cells; type: cell-based; details: for IC50: read-out: Basal_Viability ATP Colo 320 summarized IC50
[1] = test system: ECFC/ADSC co-culture cell nuclei number; details: for IC50: read-out: VEGF_ADSC\ECFC Angio Hoechst NucArea summarized IC50
DLD-1 = assay: cells; type: cell-based; details: for IC50: read-out: Basal_Viability ATP DLD-1 summarized IC50
RKO = assay: cells; type: cell-based; details: for IC50: read-out: Basal_Viability ATP RKO summarized IC50
[2] = test system: HCT116 cells treated with a GSK3β inhibitor; assay: cells; type: cell-based; details: for IC50: read-out: GSK3b inh pretreated_Viability ATP HCT116 summarized IC50
SNU-C1 = assay: cells; type: cell-based; details: for IC50: read-out: Basal_Viability ATP SNU-C1 summarized IC50
SW480 = assay: cells; type: cell-based; details: for IC50: read-out: Basal_Viability ATP SW480 summarized IC50
[3] = test system: endothelial tube formation in co-cultures of ECFCs and ADSCs treated with VEGF; assay: cells; type: cell-based, human; details: for IC50: read-out: VEGF_ADSC\ECFC Angio CD31 TubeArea summarized IC50
HT-29 = assay: cells; type: cell-based; details: assay number 28
HeLa cells = assay: cells; type: cell-based; details: for Hela CellCycMod PI 2N IC50/EC50: assay number 14; for Hela CellCycMod PI S Phase IC50/EC50: assay number 15; for Hela CellCycMod PI 4N IC50/EC50: assay number 16; for Hela CellCycMod PI MI IC50/EC50: assay number 17; for Hela CellCycMod PI Cell Number IC50/EC50: assay number 18
[4] = assay number 26, GSK3b inhibitor pretreated

Structure (SMILES): Oc1ccc(Cl)cc1Sc1cc(Cl)ccc1O [NCGC00013679-06]
- IC50 (HCT116): 0.183 µM
- IC50 (Colo320): 0.075 µM
- IC50 [1]: 8.69 µM
- IC50 (DLD-1): 0.301 µM
- IC50 (RKO): 0.116 µM
- IC50 [2]: 0.148 µM
- IC50 (SNU-C1): 1.85 µM
- IC50 (SW480): 0.579 µM
- IC50 [3]: 3.53 µM

Structure (SMILES): C[S+](CC[C@H](N)C(=O)O)C[C@H]1O[C@@H](n2cnc3c(N)ncnc32)[C@H](O)[C@@H]1O (stereo partly shown) [NCGC00167546-03]
- Basal_Viability ATP HCT116 IC50/EC50 (HCT116; assay number 25, basal): > 20 µM
- Basal_Viability ATP Colo 320 IC50/EC50 (Colo320; assay number 27, basal): > 20 µM
- VEGF_ADSC\ECFC Angio Hoechst NucArea IC50/EC50 [1]: > 10 µM
- Basal_Viability ATP DLD-1 IC50/EC50 (DLD-1; assay number 23, basal): > 20 µM
- Basal_Viability ATP RKO IC50/EC50 (RKO; assay number 29, basal): > 20 µM
- GSK3b inh pretreated_Viability ATP HCT116 IC50/EC50 [2, 4]: > 20 µM
- Basal_Viability ATP SNU-C1 IC50/EC50 (SNU-C1; assay number 30, basal): > 20 µM
- Basal_Viability ATP SW480 IC50/EC50 (SW480; assay number 24, basal): > 20 µM
- VEGF_ADSC\ECFC Angio CD31 TubeArea IC50/EC50 [3]: > 10 µM

Structure (SMILES): CCOP(=S)(OCC)SCSc1ccc(Cl)cc1 [NCGC00166170-02]
- IC50 (Colo320; assay number 27, basal): > 20 µM
- IC50 [1]: > 10 µM
- IC50 (DLD-1; assay number 23, basal): > 20 µM
- IC50 (RKO; assay number 29, basal): > 20 µM
- IC50 [2, 4]: > 20 µM
- IC50 (SNU-C1; assay number 30, basal): > 20 µM
- IC50 (SW480; assay number 24, basal): > 20 µM
- IC50 [3]: > 10 µM

Structure (SMILES): Oc1ccc(Cl)cc1Cc1ccccc1 [NCGC00091532-06]
- IC50 (HCT116; assay number 25, basal): > 20 µM
- IC50 (Colo320; assay number 27, basal): 13 µM
- IC50 (RKO; assay number 29, basal): > 20 µM
- IC50 [2, 4]: > 6.67 µM
- IC50 (HT-29; basal, read-out: Basal_Viability ATP HT-29 summarized IC50): > 20 µM
- IC50 (SW480; assay number 24, basal): > 20 µM

Structure (SMILES): Clc1ccc(C(Cn2ccnc2)OCc2ccc(Sc3ccccc3)cc2)c(Cl)c1 (stereo not shown) [NCGC00253713-01]
- Basal_Viability ATP HCT116 IC50/EC50 (HCT116; assay number 25, basal): 7.7123 µM
- Basal_Viability ATP Colo 320 IC50/EC50 (Colo320; assay number 27): 7.0587 µM
- VEGF_ADSC\ECFC Angio Hoechst NucArea IC50/EC50 [1]: > 10 µM
- Basal_Viability ATP DLD-1 IC50/EC50 (DLD-1; assay number 23): 7.7564 µM
- Basal_Viability ATP RKO IC50/EC50 (RKO; assay number 29): 6.141 µM
- GSK3b inh pretreated_Viability ATP HCT116 IC50/EC50 [2, 4]: 6.7686 µM
- Basal_Viability ATP HT-29 IC50/EC50 (HT-29): > 20 µM
- Basal_Viability ATP SW480 IC50/EC50 (SW480; assay number 24): 7.4367 µM
- VEGF_ADSC\ECFC Angio CD31 TubeArea IC50/EC50 [3]: > 10 µM

Structure (SMILES): c1cnc2cc3c(cc2n1)C1CNCC3C1 [NCGC00247735-02]
- Basal_Viability ATP HCT116 IC50/EC50 (HCT116; assay number 25, basal): > 20 µM
- Basal_Viability ATP Colo 320 IC50/EC50 (Colo320; assay number 27, basal): > 20 µM
- Basal_Viability ATP DLD-1 IC50/EC50 (DLD-1; assay number 23, basal): > 6.6667 µM
- Basal_Viability ATP SW480 IC50/EC50 (SW480; assay number 24, basal): > 6.6667 µM

Structure (SMILES): CN1Cc2cc(C(=O)N3CCC(C4CCNCC4)CC3)ccc2N[C@@H](CC(=O)O)C1=O [NCGC00319023-01]
- Basal_Viability ATP HCT116 IC50/EC50 (HCT116; assay number 25, basal, concentration response): > 20 µM
- Basal_Viability ATP Colo 320 IC50/EC50 (Colo320; assay number 27, concentration response): > 20 µM
- VEGF_ADSC\ECFC Angio Hoechst NucArea IC50/EC50 [1]: > 10 µM
- Basal_Viability ATP DLD-1 IC50/EC50 (DLD-1; assay number 23, concentration response): > 20 µM
- Basal_Viability ATP RKO IC50/EC50 (RKO; assay number 29, concentration response): > 20 µM
- GSK3b inh pretreated_Viability ATP HCT116 IC50/EC50 ([2]; assay number 26, GSK3b inhibitor pretreated, concentration response): > 20 µM
- Basal_Viability ATP SNU-C1 IC50/EC50 (SNU-C1; assay number 30, concentration response): > 20 µM
- Basal_Viability ATP SW480 IC50/EC50 (SW480; assay number 24, concentration response): > 20 µM
- VEGF_ADSC\ECFC Angio CD31 TubeArea IC50/EC50 [3]: > 10 µM

Structure (SMILES): CC(C(=O)O)c1cccc(C(=O)c2ccccc2)c1 (stereo not shown) [NCGC00015578-12]
- Basal_Viability ATP HCT116 IC50/EC50 (HCT116; assay number 25, basal): 10.487 µM
- Basal_Viability ATP DLD-1 IC50/EC50 (DLD-1; assay number 23, basal): 8.6441 µM
- Basal_Viability ATP SNU-C1 IC50/EC50 (SNU-C1; assay number 30, basal): 3.7959 µM
- Basal_Viability ATP HT-29 IC50/EC50 (HT-29; basal): 14.387 µM
- Basal_Viability ATP SW480 IC50/EC50 (SW480; assay number 24, basal): 10.2684 µM

Structure (SMILES): C[C@]12CC[C@@H]3c4ccc(O)cc4CC[C@H]3[C@@H]1CC[C@@H]2OC(=O)CCC1CCCC1 [NCGC00166134-02]
- VEGF_ADSC\ECFC Angio Hoechst NucArea IC50/EC50 [1]: > 10 µM
- Hela CellCycMod PI 2N IC50/EC50 (HeLa cells): > 10 µM
- Hela CellCycMod PI S Phase IC50/EC50 (HeLa cells): > 10 µM
- Hela CellCycMod PI 4N IC50/EC50 (HeLa cells): > 10 µM
- Hela CellCycMod PI MI IC50/EC50 (HeLa cells): > 10 µM
- Hela CellCycMod PI Cell Number IC50/EC50 (HeLa cells): > 10 µM
- VEGF_ADSC\ECFC Angio CD31 TubeArea IC50/EC50 [3]: 6.3667 µM

Structure (SMILES): CCCCCCCCCCCCCCCC[N+](C)(C)Cc1ccccc1.[Cl-] [NCGC00344524-01]
- VEGF_ADSC\ECFC Angio Hoechst NucArea IC50/EC50 [1]: > 10 µM
- Hela CellCycMod PI 2N IC50/EC50 (HeLa cells): > 10 µM
- Hela CellCycMod PI S Phase IC50/EC50 (HeLa cells): > 10 µM
- Hela CellCycMod PI 4N IC50/EC50 (HeLa cells): > 10 µM
- Hela CellCycMod PI MI IC50/EC50 (HeLa cells): > 10 µM
- Hela CellCycMod PI Cell Number IC50/EC50 (HeLa cells): > 10 µM
- VEGF_ADSC\ECFC Angio CD31 TubeArea IC50/EC50 [3]: 2.5333 µM
